Test: gradient 5% acetonitrile 3 min, to 50% in 2 min, to 85% in 15 min, held 3 min, 100 µL/min
Settings: column: Zorbax Extend-C18 2.1 x 50 mm; eluents: water / acetonitrile, 0.1% formic acid
Summary of the method: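 Values are retention times taken from adduct peaks that software picked and an analyst inspected. The pure standards were run as mixtures of ~100 molecules on HPLC linked to a quadrupole time-of-flight mass spectrometer, in positive and negative ionization mode. A Zorbax Extend-C18 column (2.1 × 50 mm, 1.8 μm) was used at 100 μL/min with water and acetonitrile, each including 0.1% formic acid.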

Cc1ccc(-c2nc3n(CC(=O)N4CCCCC4C)c4c(c(=O)n3n2)CCC4)cc1 (stereo unspecified)
RP-LC retention time: 1040 s

CCOc1ccc(NS(=O)(=O)c2cc3c(s2)CCN(C(=O)C2CCC2)C3)cc1
RP-LC retention time: 896 s

Clc1cc(I)cc(Cl)c1NC1=NCCN1
RP-LC retention time: 655 s

COc1ccc(C(CC(=O)N2CCCCCC2)N2Cc3ccccc3C2=O)cc1OC (stereo unspecified)
RP-LC retention time: 785 s

CC(C)c1noc(-c2cccnc2N2CCCN(Cc3ccc(F)cc3)CC2)n1
RP-LC retention time: 712 s

O=C(Nc1cnn(-c2ncc(N3CCCC3)cn2)c1)c1cccc(C(F)(F)F)c1
RP-LC retention time: 917 s

O=C(NCCc1ccccc1)NC1CCCN(c2cc(-c3ccncc3)[nH]n2)C1 (stereo unspecified)
RP-LC retention time: 620 s

COc1ccc(Cc2nc3nccc(-c4ccc(F)cc4)n3n2)cc1
RP-LC retention time: 882 s

O=C(CN1C(=O)CC(c2ccccc2)=Nc2cccnc21)Nc1ccc(Cl)cc1
RP-LC retention time: 1010 s

CN1CCCn2cc(S(=O)(=O)Nc3ccc(F)cc3)cc2C1=O
RP-LC retention time: 670 s

COc1ccc(CN2CCC([C@@H]3CNC[C@H]3CO)CC2)c(OC)c1
RP-LC retention time: 549 s

Cc1nn(-c2ccc(-c3ccccc3)nn2)c(C)c1S(=O)(=O)N(C)Cc1ccccc1
RP-LC retention time: 1190 s

Cc1cnc(C2CNC2)n1Cc1ccccc1
RP-LC retention time: 589 s

Cn1nc(C2CCCN(C(=O)c3ccoc3)C2)n(C2CCCC2)c1=O (stereo unspecified)
RP-LC retention time: 672 s

Cc1c(C(=O)NCCCN2CCCCC2)oc2ccc3c(c12)C(O)CC(C)(C)O3 (stereo unspecified)
RP-LC retention time: 631 s

COC(=O)c1ccc(NC(=O)NCc2noc3ccccc23)cc1
RP-LC retention time: 824 s

Cn1c(=O)oc2cc(-c3noc(CNC(=O)Cc4ccccc4)n3)ccc21
RP-LC retention time: 760 s

O=C(c1nnc(-c2ccc(S(=O)(=O)N3CCOCC3)cc2)o1)N1CCc2ccccc2C1
RP-LC retention time: 917 s

Cc1ccc(-n2c(=O)c3c(cc(C)n3C)n(CC(=O)Nc3cccc(C#N)c3)c2=O)cc1
RP-LC retention time: 822 s

O=C(c1ccc(-c2cccnc2)nc1)N1CCN(c2cccc(Cl)c2)CC1
RP-LC retention time: 726 s

CCc1ccccc1S(=O)(=O)N1CCC(N2CCN(Cc3ccc(C)cc3)C(=O)C2=O)CC1
RP-LC retention time: 955 s

COc1ccc(C2Cn3nnc(-c4nc(-c5ccc(F)c(Br)c5)no4)c3CO2)cc1 (stereo unspecified)
RP-LC retention time: 1180 s

O=S(=O)(c1cc(F)ccc1F)N1CCCCC1c1noc(COCC2CC2)n1 (stereo unspecified)
RP-LC retention time: 1130 s

Cc1nc(C)c(C(=O)NCC23CCCC=C2N(CC2CC2)C(=O)CC3)s1 (stereo unspecified)
RP-LC retention time: 785 s

Cc1cc(C2CCCN2C(=O)Cc2ccc(F)cc2)no1 (stereo unspecified)
RP-LC retention time: 775 s

O=C(CCC1CCCN(C(=O)Nc2ccc(Cl)cc2)C1)NCc1ccccc1Cl (stereo unspecified)
RP-LC retention time: 939 s

CCc1cccc(NC(=O)C2(C)Oc3cccnc3N(C(C)C)C2=O)c1 (stereo unspecified)
RP-LC retention time: 1120 s

COc1ccccc1-c1noc(C2CCCN2C(=O)Nc2cccc(Cl)c2)n1 (stereo unspecified)
RP-LC retention time: 941 s

CCOc1ccccc1N1CCN(S(=O)(=O)c2nn(C)cc2C(=O)NCCCOC)CC1
RP-LC retention time: 847 s

Cc1cccc(CN2CC(=O)N(c3cccc(C)c3)[C@@H]3CS(=O)(=O)C[C@@H]32)c1
RP-LC retention time: 826 s

COC(=O)c1cnc2nc(C)ccc2c1Nc1ccccc1F
RP-LC retention time: 649 s

CN(CC1CCOCC1)C(=O)Cc1ccsc1
RP-LC retention time: 691 s

O=c1c2sccc2n(Cc2nc(-c3ccc(Br)cc3)no2)c(=O)n1-c1ccc(F)cc1
RP-LC retention time: 1100 s

COCC(C)NC(=O)c1ccc2c(c1)CCCN2S(C)(=O)=O (stereo unspecified)
RP-LC retention time: 679 s

Cc1csc(-c2cc(S(=O)(=O)NC(C)C)cn2CC(=O)N2CCCCC2)n1
RP-LC retention time: 873 s

CC(=O)c1cccc(NC(=O)N2CCN(c3nc4ccccc4n3C)CC2)c1
RP-LC retention time: 566 s

COc1cccc(NS(=O)(=O)c2c[nH]c3ncccc23)c1
RP-LC retention time: 688 s

O=C(CN1CCN(c2ccccc2F)C1=O)Nc1ccc(OC(F)(F)F)cc1
RP-LC retention time: 855 s

O=C(Nc1ccc(F)cc1)N1CCc2nc(-c3ccc(Cl)cc3)ncc2C1
RP-LC retention time: 1010 s

Cc1nc(-c2cn(C(C)C)c3ncccc23)sc1C(=O)NCCN1CCOCC1
RP-LC retention time: 630 s

O=C(Cc1c[nH]c2ncccc12)NCc1ccc(C(F)(F)F)cc1
RP-LC retention time: 677 s

Cc1ccc(C)c(CNC(=O)c2cc3n(n2)CC(C)(C(=O)NCc2ccc(F)cc2)N(C)C3=O)c1 (stereo unspecified)
RP-LC retention time: 842 s

CNC(=O)c1ccc(Cn2cnc3cccnc32)cc1
RP-LC retention time: 572 s

O=C1C(O)=C(S(=O)(=O)c2ccccc2)C(c2ccccc2)N1Cc1ccccc1 (stereo unspecified)
RP-LC retention time: 947 s

Cc1ccccc1NC(=O)N1CCCC1c1cc(C(C)C)on1 (stereo unspecified)
RP-LC retention time: 890 s

COCCN1C(=O)c2cccn2CC1CNC(=O)CC(C)C (stereo unspecified)
RP-LC retention time: 639 s

CCCS(=O)(=O)N1CCC2(CC1)CN(Cc1ccc(OC)cc1)C2=O
RP-LC retention time: 787 s

COc1ccc(CNc2ncc(C(=O)O)c(C(C)C)n2)cc1OC
RP-LC retention time: 863 s

COc1ccc(Cl)cc1C(=O)NC1CCN(c2cc(-c3cccs3)[nH]n2)CC1
RP-LC retention time: 865 s

CC(=O)c1ccc(S(=O)(=O)N2CCC[C@@H]2C(=O)NCc2csc(C)n2)cc1
RP-LC retention time: 677 s

Cc1cc2ccccc2n1-c1ccc(C(N)=O)s1
RP-LC retention time: 842 s

Cc1cccc(C2(O)C(=O)N(CC(=O)NCc3ccco3)c3ccccc32)c1 (stereo unspecified)
RP-LC retention time: 630 s

Cc1nnc(-c2ccc3ccn(CC(=O)Nc4cccc(C)c4C)c3c2)o1
RP-LC retention time: 798 s

CCOc1ccc(CNC(=O)c2cc3c(=O)n(CC)c4ccccc4n3n2)cc1OC
RP-LC retention time: 1180 s

CC(=O)Nc1nc2ccc(CC(=O)NCCc3c[nH]c4ccc(Cl)cc34)cc2s1
RP-LC retention time: 747 s

Cc1ccc(NS(=O)(=O)c2cc(-c3cc(C(F)(F)F)on3)sc2C)c(C)c1
RP-LC retention time: 1230 s

O=C(c1ccc(CS(=O)(=O)c2c(Cl)cccc2Cl)o1)N1CCN(c2ccccn2)CC1
RP-LC retention time: 634 s

O=C(CSc1ccc(N2CCCC(C(=O)NC3CC3)C2)nn1)Nc1ccc2c(c1)OCO2 (stereo unspecified)
RP-LC retention time: 612 s

CC(C)OCCCNC(=O)C1CCN(c2nc3cccnc3s2)CC1
RP-LC retention time: 659 s

CCCN(CCC)C(=O)Cn1nc(-c2nc(-c3ccc(C)cc3)no2)c2ccccc21
RP-LC retention time: 859 s

COCCN1C(=O)CCc2cc(NS(=O)(=O)c3cccs3)ccc21
RP-LC retention time: 706 s

CN(C)[C@@H]1CN(C(=O)CC2CCCCC2)CC[C@@H]1CO
RP-LC retention time: 615 s

Cc1nn(C2CCS(=O)(=O)C2)c2nc(-c3ccc(F)cc3)cc(C(=O)N3CCCC3)c12 (stereo unspecified)
RP-LC retention time: 779 s

Cc1noc(C)c1Cc1ccc(C(=O)NCC23CCCC=C2NC(=O)CC3)o1 (stereo unspecified)
RP-LC retention time: 705 s

CCCn1ccc2sc(C)c(C(=O)NCc3ccc(OC)cc3)c2c1=O
RP-LC retention time: 836 s

c1ccc(-c2n[nH]c(-c3ccccn3)n2)nc1
RP-LC retention time: 645 s

CSc1cccc(NC(=O)Nc2c(-c3ccncc3)nc3ccccn23)c1
RP-LC retention time: 623 s

CN1C(=O)c2cc(C(=O)Nc3ccc(Cl)cc3)nn2CC1(C)C(=O)NC1CCCCC1 (stereo unspecified)
RP-LC retention time: 898 s

CC(=O)N1CCc2cc(C(=O)N(C)C)ccc21
RP-LC retention time: 595 s

CCCC(=O)Nc1cc(-c2nc3ccc(C)cc3[nH]2)ccc1C
RP-LC retention time: 650 s

Cc1cc(=O)n(CC(=O)Nc2ccccc2C)c(N2CCCC2)n1
RP-LC retention time: 620 s

Cn1ccc2ccn(CC(=O)Nc3ccccc3)c(=O)c21
RP-LC retention time: 737 s

Cc1cc(Cl)ccc1NC(=O)Cn1c(C)nc2onc(C)c2c1=O
RP-LC retention time: 818 s

O=c1[nH]c2ccc(O)cc2o1
RP-LC retention time: 563 s

Cc1cc(N2CCN(S(=O)(=O)c3cc(F)ccc3F)CC2)nc(N2CCOCC2)n1
RP-LC retention time: 660 s

CC(C)CCNc1nc(-c2ccc(Cl)cc2)nc2ccccc12
RP-LC retention time: 932 s

O=C(C1CCN(c2cnc(N3CCSCC3)nc2)CC1)N1CCC2(CC1)OCCO2
RP-LC retention time: 692 s

Clc1ccc2nc(-c3ccccc3)c(Nc3ccc4c(c3)OCO4)n2c1
RP-LC retention time: 781 s

CN(C)S(=O)(=O)c1ccc(C(=O)Nc2nnc(-c3cc4ccccc4o3)o2)cc1
RP-LC retention time: 789 s

COc1ccc(-c2nnc(-c3ccc(C)c(S(=O)(=O)N(C)C)c3)o2)cc1
RP-LC retention time: 966 s

CCCN(Cc1ccc(Cl)cc1)Cc1cc(=O)n2ccc(C)cc2n1
RP-LC retention time: 669 s

O=C(Cc1cccs1)N1CCN(c2cnn3cnnc3c2)CC1
RP-LC retention time: 585 s

CCNS(=O)(=O)c1cccnc1Nc1cccc(F)c1
RP-LC retention time: 963 s

CS(=O)(=O)N1CCC(C(=O)N2CCC(Oc3nc4ccc(F)cc4s3)CC2)CC1
RP-LC retention time: 779 s

Cn1cc(C2=CCN(S(=O)(=O)c3ccc(F)c(Cl)c3)CC2)c2cccnc21
RP-LC retention time: 1050 s

CCN(CC)c1ccc(-c2noc(CN3CCSCC3)n2)cn1
RP-LC retention time: 651 s

O=C(C1CCN(c2cc(N3CCOCC3)ncn2)CC1)N1CCN(c2ccccc2)CC1
RP-LC retention time: 640 s

CN1C(=O)c2cccn2CC1CNC(=O)c1cc(CN2CCOCC2)on1 (stereo unspecified)
RP-LC retention time: 548 s

CCn1nc(C)c(-c2cc(C(=O)NCC34CCC=C3N(C)C(=O)CC4)no2)c1C (stereo unspecified)
RP-LC retention time: 741 s

Cc1cccc(N2CCN(S(=O)(=O)c3cc4c(s3)CCN(C(=O)C3CC3)C4)CC2)c1
RP-LC retention time: 1040 s

CCNC(=O)c1nc(C(=O)NCc2ccc(F)cc2F)cs1
RP-LC retention time: 780 s

— the METLIN SMRT retention time set (Domingo-Almenara et al. 2019)
